The text below walks through data of publication PMC12722964, “Immunogenicity risk assessment of peptide-related impurities identified in generic teriparatide products” (Frontiers in Immunology, 2025).

Ends that are not written are not given here.

One data set deals with T1, HLA-DRB1*0401 (Homo sapiens, UniProt P01903+P01911, A100K/A169T/F76Y/I96L/K127E/L162R/M171V/N62H/P40V/Q125Y/R42H/S133A/S149N/S66Y/V115G/V209L/W38E).
T1 construct: incubated overnight to equilibrium with a soluble HLA-DR molecule; purchased Benaroya Research Institute, Seattle, WA, USA
The data set is described as follows: Class II HLA binding assay. The conditions noted are these: Figure 6; shortened peptides of Table 3; category by IC50; read-out: HLA binding affinity category, DRB1*0401. As to the method: (§1) Class II HLA binding assays used in these studies measure the binding affinity of a target peptide to HLA-DRB1*0101, HLA-DRB1*0301, HLA-DRB1*0401, HLA-DRB1*0701, HLA-DRB1*0901, HLA-DRB1*1101, HLA-DRB1*1301, and HLA-DRB1*1501. The HLA binding assay was originally described by Steere et al. ([21]) and adapted by EpiVax ([22], [23]). Briefly, unlabeled test peptides were incubated overnight to equilibrium with a soluble HLA-DR molecule (Benaroya Research Institute, Seattle, WA, USA) and a biotinylated, allele-specific competitor peptide of known binding affinity. The binding reaction was then neutralized with a buffered pH change, and the peptide-HLA complexes were transferred to a 96-well plate coated with a pan-HLA-DR antibody, clone L243 (BioLegend, San Diego, CA, United States), and incubated overnight. The following day, plates were resolved with the addition of europium-labeled streptavidin (Perkin-Elmer, Waltham, MA, USA). An indirect measure of binding was determined by time-resolved fluorescence. Each peptide was evaluated in triplicate over a range of seven concentrations. The percent inhibition values for each experimental peptide across this concentration range were used to calculate an IC50, the concentration at which the peptide inhibits 50% of the labeled competitor peptide.
(§2) Following the in silico analysis, epitope binding predictions by EpiMatrix were evaluated in vitro by measuring the binding affinity of each impurity peptide relative to the corresponding N- or C-terminal portion of the TPT API, in vitro. The class II HLA-DRB1 binding assay was adapted from an assay originally described by Steere et al. ([21]) that provides an indirect measurement of peptide-HLA affinity. Class II HLA binding peptides typically range in length from 12–20 amino acids; however, the core HLA binding region is nine amino acids. The class II HLA binding groove is open-ended, and the additional flanking residues on either end of the core binding motif stabilize the peptide: HLA binding interaction. Targeted binding motifs were properly centered within the shorter length peptides synthesized for these binding studies (Table 3).

The next data set has as its target HLA-DRB1*0901 (Homo sapiens, UniProt P01903+P01911, A100R/A103E/D57H/D86V/F55Y/F60I/F76Y/I96F/K127E/L162R/M171V/P40D/Q125H/Q99R/R33Q/R42F/S133A/S66N/T210M/V115G/W38K/Y107V/Y59G/Y89S). As to the kind of experiment: Class II HLA binding assay. As to conditions: Figure 6; shortened peptides of Table 3; category by IC50; read-out: HLA binding affinity category, DRB1*0901. As for the experimental part: as §1, §2

Another data set has as its target T2, HLA-DRB1*0101 (Homo sapiens, UniProt P01903+P01911, A100R/D57E/F55L/F60I/F76Y/I96L/L162R/M171V/P40L/Q125E/R42F/V115G/Y59C).
T2 construct: incubated overnight to equilibrium with a soluble HLA-DR molecule; purchased Benaroya Research Institute, Seattle, WA, USA
As to the kind of experiment: Class II HLA binding assay. The conditions noted are these: Figure 6; shortened peptides of Table 3; category by IC50; read-out: HLA binding affinity category, DRB1*0101. As for the experimental part: as §1, §2

For a further data set, the target named is T3, HLA-DRB1*0301 (Homo sapiens, UniProt P01903+P01911, A100K/A102G/A103R/A169T/F55Y/I96L/K41T/L162R/M171V/P40S/Q125H/Q178H/Q39Y/R42S/S66N/T106N/T262R/W38E/Y61H).
T3 construct: incubated overnight to equilibrium with a soluble HLA-DR molecule; purchased Benaroya Research Institute, Seattle, WA, USA
The data set is described as follows: Class II HLA binding assay. The conditions noted are these: Figure 6; shortened peptides of Table 3; category by IC50; read-out: HLA binding affinity category, DRB1*0301. As to the method:
as §1, §2

The target in another data set is HLA-DRB1*1101 (Homo sapiens, UniProt P01903+P01911, A100R/A169T/A87E/I96F/K41T/L162R/M171V/P40S/Q125H/Q178H/Q39Y/Q99D/R42S/S66Y/T262R/V115G/W38E). The data set is described as follows: Class II HLA binding assay. The conditions noted are these: Figure 6; shortened peptides of Table 3; category by IC50; read-out: HLA binding affinity category, DRB1*1101. As to the method: as §1, §2

The next data set deals with T4, HLA-DRB1*1501 (Homo sapiens, UniProt P01903+P01911).
T4 construct: incubated overnight to equilibrium with a soluble HLA-DR molecule; purchased Benaroya Research Institute, Seattle, WA, USA
The data set is described as follows: Class II HLA binding assay. As to conditions: Figure 6; shortened peptides of Table 3; category by IC50; read-out: HLA binding affinity category, DRB1*1501. As for the experimental part:
as §1, §2

The target of another data set is HLA-DRB1*0701 (Homo sapiens, UniProt P01903+P01911, A100R/A102G/A103Q/D57E/D86V/E43K/F76Y/K127E/L162R/M171V/P40G/Q125H/Q99D/R33Q/R42Y/R54Q/S133A/S66F/T210M/V115G/Y107V/Y59L/Y89S). As to the kind of experiment: Class II HLA binding assay. As to conditions: Figure 6; shortened peptides of Table 3; category by IC50; read-out: HLA binding affinity category, DRB1*0701. As to the method: as §1, §2

The target in the next data set is HLA-DRB1*1301 (Homo sapiens, UniProt P01903+P01911, A100E/A169T/K41T/L162R/M171V/P40S/Q125H/Q178H/Q39Y/Q99D/R42S/S66N/T262R/W38E/Y61H). As to the kind of experiment: Class II HLA binding assay. As to conditions: Figure 6; shortened peptides of Table 3; category by IC50; read-out: HLA binding affinity category, DRB1*1301. As to the method:
as §1, §2

The nature of data set [1]: Overall risk based on in silico and in vitro results. The conditions noted are these: EpiMatrix and JanusMatrix scores compared with naïve donor T-cell assay. From the text:
Table 4 Overall risk based on in silico and in vitro results. | column: Overall risk

Data set [2] deals with eight class II Supertype Alleles (HLA-DRB1). The data set is described as follows: Class II HLA binding assay, summary over the panel of eight alleles. Also on record: species or system human. As for the experimental part: as §1
as §2, with “Targeted binding motifs were properly centered within the shorter length peptides synthesized for these binding studies (Table 3).” left out

For data set [3] the following is noted: human, in vivo; cited from earlier work. From the text: Teriparatide (TPT), sold under the brand name Forteo®, is a 34-amino acid peptide drug produced by recombinant DNA (rDNA) technology. Synthetic peptide versions of the drug have recently been approved for the generic drug market. TPT consists of the biologically active N-terminal 34 amino acids of human parathyroid hormone (PTH) (Figure 1) and is approved in the USA for the treatment of postmenopausal osteoporosis in patients at high risk of bone fracture. Since TPT’s sequence is identical to that of the N-terminus of PTH, the development of antibodies that cross-react with the endogenous hor ... || TPT has a history of having low immunogenicity in the clinic, with only 2.8% of treated patients developing antidrug antibodies after 12 months of treatment. Consistent with this, TPT induced IFN-γ production by responding T cells in fewer than 20% of donor cell preparations ex vivo. However, because different impurities can arise from different methods of peptide synthesis and production, it is important to understand whether any peptide-related impurities could contribute to the immunogenicity risk of generic TPT. Here, we performed an immunogenicity risk assessment for several peptide-relat ...

The next data set deals with B cells. Also on record: method as in 2 sources, one per row (each row's own in cited_ref): ref Howard et al. ([38]) ||| ref [37] = [37]; 37 Howard KE . ( 2025 ). Alternative models: from humanized mice to microphysiological systems and beyond , in: Scientific and Regulatory Considerations for Assessment of Immunogenicity Risk for Gener. The conditions noted are these: cited from earlier work.

Sequence of HLA-DRB1*1101 (P01903 26-254 limits assumed, other chains not shown): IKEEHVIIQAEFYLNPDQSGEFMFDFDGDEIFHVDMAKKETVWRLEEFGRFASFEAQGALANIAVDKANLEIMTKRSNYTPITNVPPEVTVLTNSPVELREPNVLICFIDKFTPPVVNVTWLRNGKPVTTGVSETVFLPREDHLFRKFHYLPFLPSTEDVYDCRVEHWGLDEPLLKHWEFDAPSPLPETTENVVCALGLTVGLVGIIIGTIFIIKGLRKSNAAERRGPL

Regarding “MERVEWLRKKQDVHNF [DES-LEU28_TPT (18-33)]”, the IC50 at HLA-DRB1*0401 was greater than 100 µM; at HLA-DRB1*0901 it was greater than 100 µM; at HLA-DRB1*0101 it was greater than 100 µM; at HLA-DRB1*0301, greater than 100 µM; at HLA-DRB1*1101, 1 to 10 µM; at HLA-DRB1*1501, no less than 100 µM. In addition, the figures for the IC50 at HLA-DRB1*0701 and on HLA-DRB1*1301 were greater than 100 µM and 0.1 to 1 µM, respectively.
For “SVSEIQLMHNL–KHLNSMERVEWLRKKLQDVHNF [DES-GLY12_TERIPARATIDE, theoretical teriparatide impurity predicted by WhIM, deletion of Gly12]”, the Overall risk result in [1] is “High”.
In the case of “MERVEWLRK(Ac)KLQDVHNF [LYS-AC26_TPT (18-34)]”, the IC50 on HLA-DRB1*0401, on HLA-DRB1*0901, at HLA-DRB1*0101, at HLA-DRB1*0301, on HLA-DRB1*1101 and on HLA-DRB1*1501 was greater than 100 µM each time. Also, the IC50 on HLA-DRB1*0701 and on HLA-DRB1*1301 was greater than 100 µM in each case.
As for “SVSEIQLMHNLGKHLNSMERVEWLRKK–QDVHNF [DES-LEU28_TERIPARATIDE, observed teriparatide impurity, deletion of Leu28]”, in [1], the Overall risk entry is recorded as “Low”.
With “SVSEIQLMHNLG–HLNSMERVEWLRKKLQDVHNF [DES-LYS13_TERIPARATIDE, observed teriparatide impurity, deletion of Lys13]”, the Overall risk entry in [1] is “High”.
In the case of “SVSEIQLMHNLGKHLNSMERVEWLR(K-Ac)KLQDVHNF [LYS-AC26_TERIPARATIDE, observed teriparatide impurity, Lys26 acetylated]”, the “classification in the HLA binding assays” value in [2] (shorter peptide with the modification centered) is reported as “nonbinder”. Besides, the Overall risk result in [1] was “High”.
Take “SVSEIQLMHN–GKHLNSMERVEWLRKKLQDVHNF [DES-LEU11_TERIPARATIDE, observed teriparatide impurity, deletion of Leu11]”: in data set [1], the Overall risk entry is given as “High”.
Take “SVSEIQLMHNLGKHLNSMERVEWLRKKLQDVHNF [TERIPARATIDE, teriparatide]”: the “treated patients developing antidrug antibodies (ADA)” value in data set [3] is 2.8%. Further, the Overall risk result in data set [1] was “Low”. Besides, the “immunogenicity (as measured by activation of B cells)” value in the data set with B cells (at multiple doses, in contrast to SCT, ref Howard et al. ([38])) was “lower immunogenicity”.
For “SVSEIQLM–NLGKHLNSMERVEWLRKKLQDVHNF [DES-HIS9_TERIPARATIDE, observed teriparatide impurity, deletion of His9]”, in [1], the Overall risk result is recorded as “High”.
In the case of “SVSEIQLMHNLLGKHLNSMERVEWLRKKLQDVHNF [ENDO-LEU11_TERIPARATIDE, theoretical teriparatide impurity predicted by WhIM, duplication of Leu11]”, the Overall risk result in [1] is reported as “High”.
Take “SVSEIQ–MHNLGKHLNSMERVEWLRKKLQDVHNF [DES-LEU7_TERIPARATIDE, observed teriparatide impurity, deletion of Leu7]”: the “binding affinity compared to the corresponding region of the API” value in data set [2] (impurity peptides alongside N-term or C-term TPT API peptide) is recorded as “decreased or equivalent binding affinity”. Besides, the Overall risk result in data set [1] is given as “Medium”.
In the case of “SVSEIQLMHNLGK–LNSMERVEWLRKKLQDVHNF [DES-HIS14_TERIPARATIDE, observed teriparatide impurity, deletion of His14]”, the Overall risk entry in data set [1] is “High”.
Regarding salmon calcitonin [SCT], the “long-term memory B cells and plasma cells” value with B cells (SCT-treated mice compared to TPT, ref [37]) is “Increased numbers”.
Regarding “MERVEWLRKKLQDVHNF-OH [API_TPT (18-34) C-term]”, in data set [2] (of eight alleles evaluated, negligible to high affinity counted as bound), the “number of the eight class II Supertype Alleles bound” value was “three”. Besides, the IC50 was greater than 100 µM at HLA-DRB1*0401; greater than 100 µM on HLA-DRB1*0901; greater than 100 µM on HLA-DRB1*0101; greater than 100 µM on HLA-DRB1*0301; 0.1 to 1 µM at HLA-DRB1*1101; no less than 100 µM at HLA-DRB1*1501. Further, the values for the IC50 at HLA-DRB1*0701 and on HLA-DRB1*1301 were greater than 100 µM and 1 to 10 µM, respectively.
